Assay results taken from PubChem BioAssay (NCI).
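Exposure lasted 48 hours, with cells grown in 96-well plates and compounds tested at five concentrations. Here, GI50 denotes the concentration required for 50% inhibition of growth. TGI is the concentration that stops growth completely.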

Assays:
Experiment in all cases: NCI anticancer screen, dose series, 48 h
[1] = tested on: M14 melanoma
[2] = tested on: SK-MEL-5 melanoma
[3] = tested on: NCI-H460 lung
[4] = tested on: MDA-MB-435
[5] = tested on: HOP-62 NSCLC
[6] = tested on: IGROV1 ovarian
[7] = tested on: PC-3 prostate
[8] = tested on: SW-620 colon
[9] = tested on: T-47D breast
[10] = tested on: DU-145 prostate
[11] = tested on: SN12C renal
[12] = tested on: OVCAR-8 ovarian
[13] = tested on: UACC-257 melanoma
[14] = tested on: HS 578T breast
[15] = tested on: K-562 leukemia
[16] = tested on: A549 NSCLC
[17] = tested on: LOX IMVI melanoma
[18] = tested on: HCT-15 colon
[19] = tested on: CAKI-1 renal
[20] = tested on: UO-31 renal
[21] = tested on: A498 renal
[22] = tested on: ACHN renal
[23] = tested on: OVCAR-4 ovarian
[24] = tested on: OVCAR-5 ovarian
[25] = tested on: SF-268 CNS
[26] = tested on: HL-60(TB) leukemia
[27] = tested on: SK-MEL-2 melanoma
[28] = tested on: SF-539 CNS
[29] = tested on: HCC-2998 colon

Compound: CN(C)CCNC(=O)c1ccc(-c2nc3ccc4[nH]ncc4c3c3c2CCC3)cc1
- GI50 [1]: 961 nM
- TGI [1]: 6080 nM
- GI50 [2]: 1600 nM
- TGI [2]: 5980 nM
- GI50 [3]: 1280 nM
- TGI [3]: 5170 nM
- GI50 [4]: 1130 nM
- TGI [4]: 6990 nM
- GI50 [5]: 593 nM
- TGI [5]: 2670 nM
- GI50 [6]: 684 nM
- TGI [6]: 5400 nM
- GI50 [7]: 717 nM
- TGI [7]: 4960 nM
- GI50 [8]: 611 nM
- TGI [8]: 3610 nM
- GI50 [9]: 1370 nM
- TGI [9]: 9660 nM
- GI50 [10]: 760 nM
- TGI [10]: 5010 nM
- GI50 [11]: 1130 nM
- TGI [11]: 4150 nM
- GI50 [12]: 854 nM
- TGI [12]: 5800 nM
- GI50 [13]: 2310 nM
- TGI [13]: 8360 nM
- GI50 [14]: 549 nM
- TGI [14]: 1990 nM
- GI50 [15]: 1110 nM
- TGI [15]: 20100 nM
- GI50 [16]: 1260 nM
- TGI [16]: 6780 nM
- GI50 [17]: 616 nM
- TGI [17]: 1500 nM
- GI50 [18]: 1610 nM
- TGI [18]: 7630 nM
- GI50 [19]: 263 nM
- TGI [19]: 5540 nM
- GI50 [20]: 1070 nM
- TGI [20]: 4660 nM
- GI50 [21]: 281 nM
- TGI [21]: 1070 nM
- GI50 [22]: 844 nM
- TGI [22]: 6860 nM
- GI50 [23]: 1330 nM
- TGI [23]: 5480 nM
- GI50 [24]: 1400 nM
- TGI [24]: 7340 nM
- GI50 [25]: 634 nM
- TGI [25]: 2140 nM
- GI50 [26]: 992 nM
- TGI [26]: 3340 nM
- GI50 [27]: 850 nM
- TGI [27]: 1830 nM
- GI50 [28]: 606 nM
- TGI [28]: 1740 nM
- GI50 [29]: 1250 nM
